According to US7566712B2, “Biaryl piperazinyl-pyridine analogues” (Neurogen Corporation, priority 2003, dated 2009):
pIC50: −log10 of the molar value.

Molecular target: T1, human capsaicin receptor (Homo sapiens, UniProt Q8NER1)
T1 construct: pBK-CMV expression construct encoding the full length human capsaicin receptor; expressed in transfected cells
Experiment: Calcium mobilization assay, determination of antagonist activity (Example 6)
Type: cell-based
Settings: Table II
Method in brief: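 HEK293 clonal lines stably expressing full-length human capsaicin receptor, loaded with Fluo-3 AM in KRH buffer pH 7.4, 1–2 h at 37 °C. Compounds (1–5 μM final) preincubated 0.5–6 h at room temperature, then capsaicin at its EC50 added. FLIPR/Fluoroskan calcium signal; IC50 as 50% decrease of capsaicin response.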

[1] = determined as described in Example 6 (calcium mobilization, antagonist activity)
[2] = determined as described in Example 6 (antagonist activity), "*" = 1 micromolar or less
[3] = IC50 determined as described in Example 6

T1 sequence (Q8NER1 whole entry): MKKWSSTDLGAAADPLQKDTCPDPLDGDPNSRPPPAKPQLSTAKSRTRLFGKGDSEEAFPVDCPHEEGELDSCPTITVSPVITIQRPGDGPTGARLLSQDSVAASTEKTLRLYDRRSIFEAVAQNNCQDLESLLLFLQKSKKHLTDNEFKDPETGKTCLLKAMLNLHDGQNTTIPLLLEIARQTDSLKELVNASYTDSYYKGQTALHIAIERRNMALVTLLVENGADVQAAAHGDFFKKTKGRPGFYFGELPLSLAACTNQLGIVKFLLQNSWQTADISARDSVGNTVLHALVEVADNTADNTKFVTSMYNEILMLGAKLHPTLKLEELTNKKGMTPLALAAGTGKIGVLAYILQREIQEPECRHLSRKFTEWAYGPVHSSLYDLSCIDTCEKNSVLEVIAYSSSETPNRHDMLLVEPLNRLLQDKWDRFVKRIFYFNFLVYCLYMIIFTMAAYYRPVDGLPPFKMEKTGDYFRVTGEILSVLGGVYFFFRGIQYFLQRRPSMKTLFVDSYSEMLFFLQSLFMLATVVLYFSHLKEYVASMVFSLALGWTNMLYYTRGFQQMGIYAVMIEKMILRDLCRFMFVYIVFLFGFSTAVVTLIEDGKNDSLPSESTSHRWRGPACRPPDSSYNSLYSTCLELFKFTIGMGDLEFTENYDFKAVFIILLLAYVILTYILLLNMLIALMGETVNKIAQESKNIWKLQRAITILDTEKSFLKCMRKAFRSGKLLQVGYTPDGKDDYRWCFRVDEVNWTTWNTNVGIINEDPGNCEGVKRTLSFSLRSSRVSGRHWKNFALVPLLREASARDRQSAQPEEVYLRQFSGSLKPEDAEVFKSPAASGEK

Structure (SMILES)	pIC50 [2]	other results
O=C1NCC2(CCN(c3nc(-c4ccc(F)c(Cl)c4)cc(N4CCN(c5ncccc5C(F)(F)F)CC4)n3)CC2)O1 [Example 581, 8-(4-(3-chloro-4-fluorophenyl)-6-{4-[3-(trifluoromethyl)pyridin-2-yl]piperazin-1-yl}pyrimidin-2-yl)-1-oxa-3,8-diazaspiro[4.5]decan-2-one]	–	pIC50 [1]: ≥ 6.00
CCN(CC)c1nc(-c2ccc(F)c(C)c2)cc(N2CCN(c3ncccc3Cl)CC2)n1 [Example 721, 4-[4-(3-chloropyridin-2-yl)piperazin-1-yl]-N,N-diethyl-6-(4-fluoro-3-methylphenyl)pyrimidin-2-amine]	–	pIC50 [1]: ≥ 6.00
COc1cccc(-c2cc(N3CCN(c4ncccc4C)C[C@H]3C)nc(N3CCOCC3)n2)c1 [Example 524, 4-{4-(3-methoxyphenyl)-6-[(2R)-2-methyl-4-(3-methylpyridin-2-yl)piperazin-1-yl]pyrimidin-2-yl}morpholine]	–	pIC50 [3]: ≥ 6.00
C=CCN1CCN(c2nc(-c3ccccc3)nc(N3CCN(c4ncccc4C(F)(F)F)CC3)n2)CC1 [Example 440, 2-(4-allylpiperazin-1-yl)-4-phenyl-6-{4-[3-(trifluoromethyl)pyridin-2-yl]piperazin-1-yl}-1,3,5-triazine]	–	pIC50 [3]: ≥ 6.00
Fc1ccc(-c2cc(N3CCN(c4ncccc4C(F)(F)F)CC3)nc(N3C[C@H]4C[C@@H]3CN4)n2)cc1Cl [Example 775, (1R,4R)-2-(4-(3-chloro-4-fluorophenyl)-6-{4-[3-(trifluoromethyl)pyridin-2-yl]piperazin-1-yl}pyrimidin-2-yl)-2,5-diazabicyclo[2.2.1]heptane]	≥ 6.00	–
Cc1cc(-c2cc(N3CCN(c4ncccc4C(F)(F)F)CC3)nc(N3CCOCC3)n2)cc(C)n1 [Example 590, 4-(4-(2,6-dimethylpyridin-4-yl)-6-{4-[3-(trifluoromethyl)pyridin-2-yl]piperazin-1-yl}pyrimidin-2-yl)morpholine]	–	pIC50 [1]: ≥ 6.00
C=CCN1CCN(c2nc(-c3cccc(Cl)c3)nc(N3CCN(c4ncccc4C(F)(F)F)CC3)n2)CC1 [Example 441, 2-(4-allylpiperazin-1-yl)-4-(3-chlorophenyl)-6-{4-[3-(trifluoromethyl)pyridin-2-yl]piperazin-1-yl}-1,3,5-triazine]	–	pIC50 [3]: ≥ 6.00

More lines, main results first:

pIC50 [2]	Structure (SMILES)	other results
≥ 6.00	CNC(=O)c1cnc(N2CCN(c3cc(-c4ccc(F)c(Cl)c4)nc(N4CCCC4C)n3)CC2)c(Cl)c1 (stereo not shown) [Example 825, 5-chloro-6-{4-[6-(3-chloro-4-fluorophenyl)-2-(2-methylpyrrolidin-1-yl)pyrimidin-4-yl]piperazin-1-yl}-N-methylnicotinamide]	–
≥ 6.00	Cc1cc(-c2cc(N3CCN(c4ncccc4Cl)C[C@H]3C)nc(N3CCC3C)n2)ccc1F (stereo partly drawn) [Example 785, 4-[(2R)-4-(3-chloropyridin-2-yl)-2-methylpiperazin-1-yl]-6-(4-fluoro-3-methylphenyl)-2-(2-methylazetidin-1-yl)pyrimidine]	–
≥ 6.00	C[C@@H]1CN(c2nccnc2Cl)CCN1c1cc(-c2ccc(F)cc2)nc(Cl)n1 [Example 920, 2-chloro-4-[(2R)-4-(3-chloropyrazin-2-yl)-2-methylpiperazin-1-yl]-6-(4-fluorophenyl)pyrimidine]	–
≥ 6.00	C[C@H]1CN(c2ncccc2Cl)CCN1c1cc(-c2ccc(Cl)c(F)c2)nc(N2CCOCC2)n1 [Example 959, 4-{4-(4-chloro-3-fluorophenyl)-6-[(2S)-4-(3-chtoropyridin-2-yl)-2-methylpiperazin-1-yl]pyrimidin-2-yl}morpholine]	–
≥ 6.00	N#Cc1cncc(-c2cc(N3CCN(c4ncccc4C(F)(F)F)CC3)nc(N3CCCC3)n2)c1 [Example 886, 5-(2-pyrrolidin-1-yl-6-{4-[3-(trifluoromethyl)pyridin-2-yl]piperazin-1-yl}pyrimidin-4-yl)nicotinonitrile]	–
≥ 6.00	Cc1cc(-c2cc(N3CCN(c4nccnc4Cl)C[C@H]3C)nc(N3CCOCC3)n2)ccc1F [Example 916, 4-[4-[(2R)-4-(3-chloropyrazin-2-yl)-2-methylpiperazin-1-yl]-6-(4-fluoro-3-methylphenyl)pyrimidin-2-yl]morpholine]	–
